These are literature values, as cited in US10016375B2, “Materials and methods for controlling infections” (priority 2013, dated 2018).

The conditions of series [1]: three consecutive cataract operations.
The conditions of series [2]: 4% chlorhexidine gluconate applied to the eyes.

Turning to `[H]/N=C(\N/C(=N/[H])NCCCCCCNC(=N)NC(=N)Nc1ccc(Cl)cc1)Nc1ccc(Cl)cc1` [chlorhexidine], the “Effects in the retina or optic nerve after intraocular irrigation” value in series [1] was “No effects were observed”. In addition, the “Corneal endothelium damage after intraocular irrigation” value in series [1] (two of the three patients) was “corneal endothelium damage was so severe that penetrating keratoplasty had to be performed”. For `[H]/N=C(\N/C(=N/[H])NCCCCCCNC(=N)NC(=N)Nc1ccc(Cl)cc1)Nc1ccc(Cl)cc1` [Chlorhexidine gluconate], the “Corneal damage (bullous keratopathy, epithelial defects, corneal opacification) when applied to the eyes” value in series [2] is given as “may produce corneal damage”. Turning to `CC(=O)O.CC(=O)O.NC(=N\CCCCCC/N=C(N)/N=C(\N)Nc1ccc(Cl)cc1)/N=C(\N)Nc1ccc(Cl)cc1` [Chlorhexidine diacetate], the “Acute toxicity when applied to the eye” value is reported as “highly acutely toxic”.
